Results on 43 molecules are retold here after US10226464B2, “Small molecule NF-κB inhibitors” (ImmuneTarget, Inc., priority 2015, dated 2019).

One experiment concerns NF-κB. Kind of experiment: NF-κB GFP Assay (NFκB/Jurkat/GFP transcriptional reporter cell line). The class given is cell-based. The following applies: Homo sapiens; NF-κB/Jurkat/GFP reporter cells, TNF-α 5 ng/ml, 24 hours; read-out: NF-KB GFP IC50. On the procedure:
NFκB/Jurkat/GFP transcriptional reporter cell line was obtained from SBI System Biosciences. NF-κB/Jurkat/GFP™ Reporter cells (5×10^5 cells) were plated at a concentration of 1 million cells/ml into each well of a 24-well plate. TNF-α (5 ng/ml) was added. Compounds were added via serial dilutions to corresponding wells. After 24 hours, 100 μl of the cells were transferred to a well of a Costar® UV plate (96 well, No lid, w/ UV Transparent Flat Bottom, Corning, N.Y., Cat#3635) and the intensity of GFP fluorescence was measured (Excitation 485+/−20, Emission 528+/−20) in a Synergy™ HT Multi-Detection Microplate Reader (BioTech, Winooski, Vt.). The intensities of GFP measured were plotted against the […].

The target of the next experiment is c-Rel protein (Homo sapiens (Human), UniProt Q04864). Kind of experiment: Electrophoretic Mobility Shift Assay (EMSA), Rel/NF-κB DNA binding inhibition. The following applies: 10 nM c-Rel protein, phosphor-labeled CD28RE oligonucleotide. On the procedure:
Electrophoretic Mobility Shift Assay (EMSA)
DNA binding reaction (20 μL) was carried out in 1×DNA Binding Buffer (10 mM Tris, 40 mM NaCl, 1 mM EDTA, 4% glycerol) with 10 nM c-Rel protein and 0.5 ng phosphor-labeled CD28RE oligonucleotide for 10 minutes at room temperature in 96-well plates. Test compounds, in serial dilutions, were added into each well, and further incubated for 15 minutes before loading onto native 5% polyacrylamide gel. Electrophoresis proceeded for 2.5 hours at 160V. Radioactive signals were quantified using Phospho-Imager. IC50 of compounds of example 1 to 75 were determined by quantifying the intensity of Rel/NF-κB inhibition in EMSA using phospho-imager. An example of EMSA data of the present invention is shown for compound 6 in FIG. 2.

Chain of c-Rel protein (Q04864 whole entry): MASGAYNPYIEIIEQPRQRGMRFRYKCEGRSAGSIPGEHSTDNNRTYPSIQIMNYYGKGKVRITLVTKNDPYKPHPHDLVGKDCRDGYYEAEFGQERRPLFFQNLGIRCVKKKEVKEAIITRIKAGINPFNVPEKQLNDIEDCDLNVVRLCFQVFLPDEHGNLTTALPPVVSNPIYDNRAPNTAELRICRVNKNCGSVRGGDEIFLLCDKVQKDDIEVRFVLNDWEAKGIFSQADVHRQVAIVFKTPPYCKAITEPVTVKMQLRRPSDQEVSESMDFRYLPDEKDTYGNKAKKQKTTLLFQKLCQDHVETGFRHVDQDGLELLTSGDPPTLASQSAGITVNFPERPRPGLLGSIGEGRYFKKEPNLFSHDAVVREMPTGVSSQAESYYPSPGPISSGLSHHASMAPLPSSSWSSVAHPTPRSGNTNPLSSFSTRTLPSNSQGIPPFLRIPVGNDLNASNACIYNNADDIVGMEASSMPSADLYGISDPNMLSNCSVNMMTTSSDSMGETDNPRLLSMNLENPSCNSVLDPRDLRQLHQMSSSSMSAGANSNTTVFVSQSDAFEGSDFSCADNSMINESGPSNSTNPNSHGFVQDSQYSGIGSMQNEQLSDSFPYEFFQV

Take `COc1cccc2cc3c(=O)[nH]c(=O)nc-3oc12` [Compound 1, 9-methoxy-2H-chromeno[2,3-d]pyrimidine-2,4(3H)-dione]: the IC50 in the experiment on NF-κB is < 30 µM; on c-Rel protein it was < 2 µM.

Consider `CCOc1cccc2cc3c(=O)[nH]c(=O)nc-3oc12` [Compound 2, 9-ethoxy-2H-chromeno[2,3-d]pyrimidine-2,4(3H)-dione], for which the IC50 was < 30 µM in the experiment on NF-κB and < 2 µM on c-Rel protein.

Take `COc1cc(Cl)cc2cc3c(=O)[nH]c(=O)nc-3oc12` [Compound 3, 7-chloro-9-methoxy-2H-chromeno[2,3-d]pyrimidine-2,4(3H)-dione]: the IC50 in the experiment on NF-κB was < 30 µM; on c-Rel protein it was < 2 µM.

With `COc1cc(Br)cc2cc3c(=O)[nH]c(=O)nc-3oc12` [Compound 4, 7-bromo-9-methoxy-2H-chromeno[2,3-d]pyrimidine-2,4(3H)-dione], the IC50 was < 30 µM in the experiment with NF-κB and < 2 µM at c-Rel protein.

As for `CCOc1cc(Cl)cc2cc3c(=O)[nH]c(=O)nc-3oc12` [Compound 5], the concentration for half-maximal inhibition (IC50) was < 30 µM with NF-κB and < 2 µM on c-Rel protein.

With `COc1ccc2cc3c(=O)[nH]c(=O)nc-3oc2c1` [Compound 6, 8-methoxy-2H-chromeno[2,3-d]pyrimidine-2,4(3H)-dione], the values for the 50% inhibitory concentration (IC50) with NF-κB and on c-Rel protein were < 10 µM and < 1 µM, respectively.

`COc1cc(Cl)cc2cc3c(=O)[nH]c(=S)nc-3oc12` [Compound 7, 7-chloro-9-methoxy-2-thioxo-2H-chromeno[2,3-d]pyrimidin-4(3H)-one]: the IC50 with NF-κB is < 30 µM; at c-Rel protein, < 2 µM.

As to `COc1ccc2cc3c(=O)[nH]c(=S)nc-3oc2c1` [Compound 8, 8-methoxy-2-thioxo-2H-chromeno[2,3-d]pyrimidin-4(3H)-one], the IC50 was < 30 µM in the experiment on NF-κB and < 0.5 µM on c-Rel protein.

With `O=c1nc2oc3ccccc3cc-2c(=O)[nH]1` [Compound 9, 2H-chromeno[2,3-d]pyrimidine-2,4(3H)-dione], the figures for the IC50 with NF-κB and on c-Rel protein were < 20 µM and < 5 µM, respectively.

Regarding `COc1ccc2oc3nc(=O)[nH]c(=O)c-3cc2c1` [Compound 10, 7-methoxy-2H-chromeno[2,3-d]pyrimidine-2,4(3H)-dione], the IC50 with NF-κB is < 30 µM; on c-Rel protein, < 1 µM.

Turning to `O=c1nc2oc3cc(O)ccc3cc-2c(=O)[nH]1` [Compound 11, 8-hydroxy-2H-chromeno[2,3-d]pyrimidine-2,4(3H)-dione], the concentration for half-maximal inhibition (IC50) is < 20 µM in the experiment on NF-κB and < 1 µM at c-Rel protein.

`Cc1ccc2cc3c(=O)[nH]c(=O)nc-3oc2c1` [Compound 12, 8-methyl-2H-chromeno[2,3-d]pyrimidine-2,4(3H)-dione]: the IC50 with NF-κB was 7 µM; on c-Rel protein, < 1 µM.

Regarding `CCOc1ccc2cc3c(=O)[nH]c(=O)nc-3oc2c1` [Compound 13, 8-ethoxy-2H-chromeno[2,3-d]pyrimidine-2,4(3H)-dione], the IC50 is 9 µM with NF-κB and < 1 µM at c-Rel protein.

For the molecule `COc1cc(OC)c2cc3c(=O)[nH]c(=O)nc-3oc2c1` [Compound 14, 6,8-dimethoxy-2H-chromeno[2,3-d]pyrimidine-2,4(3H)-dione], the figures for the IC50 in the experiment with NF-κB and at c-Rel protein were 8.2 µM and < 1 µM, respectively.

Take `COc1ccc2oc3nc(=S)[nH]c(=O)c-3cc2c1` [Compound 15, 7-methoxy-2-thioxo-2H-chromeno[2,3-d]pyrimidin-4(3H)-one]: the figures for the IC50 in the experiment with NF-κB and on c-Rel protein were < 30 µM and < 0.5 µM, respectively.

Turning to `O=c1[nH]c(=S)nc2oc3cc(O)ccc3cc1-2` [Compound 16, 8-hydroxy-2-thioxo-2H-chromeno[2,3-d]pyrimidin-4(3H)-one], the half-maximal inhibitory concentration (IC50) was < 30 µM with NF-κB and < 0.5 µM on c-Rel protein.

`Cc1ccc2cc3c(=O)[nH]c(=S)nc-3oc2c1` [Compound 17, 8-methyl-2-thioxo-2H-chromeno[2,3-d]pyrimidin-4(3H)-one]: the IC50 is < 30 µM with NF-κB and < 0.5 µM on c-Rel protein.

On to `COc1cc(OC)c2cc3c(=O)[nH]c(=S)nc-3oc2c1` [Compound 18, 6,8-dimethoxy-2-thioxo-2H-chromeno[2,3-d]pyrimidin-4(3H)-one], for which, on c-Rel protein, the IC50 was < 0.5 µM.

Take `CCCOc1ccc2cc3c(=O)[nH]c(=O)nc-3oc2c1` [Compound 19, 8-propoxy-2H-chromeno[2,3-d]pyrimidine-2,4(3H)-dione]: the IC50 in the experiment with NF-κB was < 5 µM; at c-Rel protein, < 1 µM.

Consider `CCCOc1cc2oc3nc(=O)[nH]c(=O)c-3cc2cc1Cl` [Compound 20, 7-chloro-8-propoxy-2H-chromeno[2,3-d]pyrimidine-2,4(3H)-dione], for which the IC50 was < 5 µM in the experiment with NF-κB and < 1 µM on c-Rel protein.

In the case of `CCCCCCOc1ccc2cc3c(=O)[nH]c(=O)nc-3oc2c1` [Compound 21, 8-(n-hexyloxy)-2H-chromeno[2,3-d]pyrimidine-2,4(3H)-dione], the IC50 in the experiment with NF-κB was < 5 µM; at c-Rel protein, < 1 µM.

Take `CCOc1ccc2cc3c(=O)[nH]c(=O)nc-3oc2c1Cl` [Compound 22, 9-chloro-8-ethoxy-2H-chromeno[2,3-d]pyrimidine-2,4(3H)-dione]: the figures for the concentration for half-maximal inhibition (IC50) with NF-κB and at c-Rel protein were < 10 µM and < 1 µM, respectively.

Turning to `CC(C)COc1ccc2cc3c(=O)[nH]c(=O)nc-3oc2c1` [Compound 23, 8-isobutoxy-2H-chromeno[2,3-d]pyrimidine-2,4(3H)-dione], the IC50 was < 5 µM with NF-κB and < 1 µM on c-Rel protein.

In the case of `CCCCn1c(=O)nc2oc3cc(OCC)ccc3cc-2c1=O` [Compound 24, 3-(n-butyl)-8-ethoxy-2H-chromeno[2,3-d]pyrimidine-2,4(3H)-dione], the IC50 in the experiment on NF-κB is < 30 µM; at c-Rel protein, < 1 µM.

As for `CCCc1cc2oc3nc(=O)[nH]c(=O)c-3cc2cc1Cl` [Compound 25, 7-chloro-8-propyl-2H-chromeno[2,3-d]pyrimidine-2,4(3H)-dione], the IC50 with NF-κB is < 30 µM; on c-Rel protein it was < 1 µM.

For the molecule `CCCCn1c(=O)nc2oc3cc(OCC)c(Cl)cc3cc-2c1=O` [Compound 26, 3-butyl-7-chloro-8-ethoxy-2H-chromeno[2,3-d]pyrimidine-2,4(3H)-dione], the IC50 in the experiment with NF-κB is < 30 µM; at c-Rel protein, < 1 µM.

Take `Cc1cc2oc3nc(=O)[nH]c(=O)c-3cc2cc1F` [Compound 27, 7-fluoro-8-methyl-2H-chromeno[2,3-d]pyrimidine-2,4(3H)-dione]: the IC50 in the experiment with NF-κB was < 5 µM; on c-Rel protein, < 0.5 µM.

Turning to `CCOc1cc2oc3nc(=O)[nH]c(=O)c-3cc2cc1F` [Compound 28, 8-ethoxy-7-fluoro-2H-chromeno[2,3-d]pyrimidine-2,4(3H)-dione], the concentration for half-maximal inhibition (IC50) in the experiment with NF-κB is < 5 µM; at c-Rel protein it was < 0.5 µM.

For `CCCCOc1cc2oc3nc(=O)[nH]c(=O)c-3cc2cc1F` [Compound 29], the IC50 is < 5 µM with NF-κB and < 0.5 µM at c-Rel protein.

`CCCCCOc1cc2oc3nc(=O)[nH]c(=O)c-3cc2cc1F` [Compound 30]: the IC50 in the experiment on NF-κB is < 10 µM; at c-Rel protein, < 0.5 µM.

Regarding `CCCCCCOc1cc2oc3nc(=O)[nH]c(=O)c-3cc2cc1F` [Compound 31], the IC50 in the experiment with NF-κB is < 5 µM; at c-Rel protein, < 0.5 µM.

Take `CCCCCCCOc1cc2oc3nc(=O)[nH]c(=O)c-3cc2cc1F` [Compound 32]: the IC50 in the experiment on NF-κB is < 5 µM; on c-Rel protein it was < 0.5 µM.

`CC(C)CCOc1cc2oc3nc(=O)[nH]c(=O)c-3cc2cc1F` [Compound 33]: the IC50 is < 3 µM in the experiment on NF-κB and < 0.5 µM on c-Rel protein.

For the molecule `CC(C)(C)CCOc1cc2oc3nc(=O)[nH]c(=O)c-3cc2cc1F` [Compound 34], the IC50 in the experiment with NF-κB is 10 µM; at c-Rel protein it was < 0.5 µM.

As for `CC(C)CCCOc1cc2oc3nc(=O)[nH]c(=O)c-3cc2cc1F` [Compound 35], the results for the IC50 with NF-κB and at c-Rel protein were < 10 µM and < 1 µM, respectively.

On to `CC(C)(C)COc1cc2oc3nc(=O)[nH]c(=O)c-3cc2cc1F` [Compound 36], for which the IC50 with NF-κB was < 10 µM; at c-Rel protein it was < 0.5 µM.

For the molecule `CCCCCCOc1cc2oc3nc(=O)[nH]c(=O)c-3cc2cc1Cl` [Compound 37], the results for the IC50 in the experiment on NF-κB and on c-Rel protein were < 20 µM and < 0.5 µM, respectively.

In the case of `CC(C)COc1cc2oc3nc(=O)[nH]c(=O)c-3cc2cc1Cl` [Compound 38], the IC50 in the experiment on NF-κB is < 20 µM; on c-Rel protein, < 0.5 µM.

Regarding `CCCCCOc1ccc2cc3c(=O)[nH]c(=O)nc-3oc2c1Cl` [Compound 39], the IC50 in the experiment on NF-κB was < 3 µM; at c-Rel protein, < 0.5 µM.

`CC(C)CCOc1ccc2cc3c(=O)[nH]c(=O)nc-3oc2c1Cl` [Compound 40]: the results for the IC50 with NF-κB and at c-Rel protein were 5 µM and < 0.5 µM, respectively.

With `CC(C)(C)CCOc1ccc2cc3c(=O)[nH]c(=O)nc-3oc2c1Cl` [Compound 41], the figures for the IC50 in the experiment with NF-κB and at c-Rel protein were < 10 µM and < 0.5 µM, respectively.

Regarding `CCCCCCCOc1ccc2cc3c(=O)[nH]c(=O)nc-3oc2c1Cl` [Compound 42], the values for the IC50 in the experiment on NF-κB and on c-Rel protein were < 10 µM and < 0.5 µM, respectively.

`CCCCOc1ccc2cc3c(=O)[nH]c(=O)nc-3oc2c1Cl` [Compound 43]: the half-inhibitory concentration (IC50) in the experiment with NF-κB is < 3 µM; at c-Rel protein, < 0.5 µM.
